This is an account of results in patent publication US20050049228A1, “Antimicrobial photodynamic therapy compound and method of use” (CeramOptec Industries Inc., priority 2003, published 2005).

Common to all, as to assay: Photodynamic inactivation of bacterial cell suspensions (CFU count after 532 nm laser irradiation)
Holding throughout (format): cell-based

For assay [1], the system named is Escherichia coli DSM 8698. The settings on record: in presence of blood serum or plasma in the treatment suspensions, 10 μM, 100 μM, 1 mM, 30 min dark incubation, about 100 J/cm^2. As to the method: (§1) The organisms used in our studies were three members of the microflora of wounds: Staphylococcus aureus DSM1104 (A TCC 25923), Gram-positive; Escherichia coli DSM 8698, Gram-negative; Pseudomonas aeruginosa DSM 1117 (ATCC 27853), Gram-negative. All strains were grown aerobically overnight at 37° C. in Tryptic Soy Broth (Merck KGaA Darmstadt, Germany). Cells were harvested by centrifugation and resuspended in sterile phosphate-buffered saline (PBS) or sterile PBS supplemented with 10% sterile horse blood serum (Oxoid), 10% human plasma or 10% human blood (both freshly obtained from donors), respectively. The final OD (Optical Density) at 600 nm, 1 cm in all cases was 0.03.
(§2) Aliquots (190 μl) of the bacterial suspensions were placed into sterile black 96 well plates with clear bottom (Costar® 3603, Corning Inc., USA). 10 μl of three different Safranin O stock solutions were added to obtain the final photosensitizer concentrations of 10 μM, 100 μM and 1 mM, respectively. The plates were incubated for 30 minutes in the dark at room temperature.
(§3) After incubation the samples were exposed to light from a laser Ceralas G2 (biolitec AG, Germany), 532 nm, power set to 0.5 W, irradiation time of […] via a light fiber from the bottom of the plate. The fluence rate for these settings was about 1.2 W/cm^2 (measured with Optometer P-9710, Gigahertz-Optik GmbH, Puchheim, Germany). With the irradiation time, the resulting energy fluence was about 100 J/cm^2.
(§4) Control wells contained no Safranin O and were not exposed to laser light. The control samples for dark toxicity were only exposed to Safranin O (end concentration of 1 mM) without any illumination.
(§5) After illumination the samples were removed from the wells of the plate, diluted with Tryptic Soy Broth and plated by using spiral plater Eddy Jet (iul Instruments, Barcelona, Spain) on Tryptic Soy agar plates. The numbers of colony-forming units (CFU/ml) were enumerated after adequate incubation by using colony counter Countermat Flash (iul Instruments, Barcelona, Spain).

Assay [2] concerns Staphylococcus aureus DSM1104 (ATCC 25923). Particulars: cell suspensions in PBS and in PBS+10% horse blood serum, PBS+10% human plasma, 10 μM, 100 μM, 1 mM, 30 min dark incubation, about 100 J/cm^2. The method, then: as §1, §2, §3, §4, §5
Assay [3] relates to Pseudomonas aeruginosa DSM 1117 (ATCC 27853). Particulars: in presence of blood serum or plasma in the treatment suspensions, 10 μM, 100 μM, 1 mM, 30 min dark incubation, about 100 J/cm^2. The method, then: as §1, §2, §3, §4, §5

For `Cc1cc2nc3cc(C)c(N)cc3[n+](-c3ccccc3)c2cc1N.[Cl-]` [Safranin O], the “killing of cell suspensions by PDT treatment” value in assay [1] and in assay [3] was “sufficient killing” in each case. Also, the “killing effect by PDT treatment” value in assay [2] was “very good killing effect”.
